{
  "source": "patent US20240150322A1",
  "about": "“CDK9 Inhibitors” (Biolexis Therapeutics, Inc., priority 2022, published 2024)",
  "key": {"[1]": {"test": "Pharmacokinetic study in mice", "details": "mouse, in vivo, po"}, "C4-2": {"system": "C4-2", "test": "Annexin V/7-AAD apoptosis assay", "assay_type": "cell-based", "details": "C4-2, treated for 72 hours"}, "TAOK1": {"molecular_target": "TAOK1 (Homo sapiens, UniProt Q7L7X3)", "sequence (Q7L7X3 whole entry)": "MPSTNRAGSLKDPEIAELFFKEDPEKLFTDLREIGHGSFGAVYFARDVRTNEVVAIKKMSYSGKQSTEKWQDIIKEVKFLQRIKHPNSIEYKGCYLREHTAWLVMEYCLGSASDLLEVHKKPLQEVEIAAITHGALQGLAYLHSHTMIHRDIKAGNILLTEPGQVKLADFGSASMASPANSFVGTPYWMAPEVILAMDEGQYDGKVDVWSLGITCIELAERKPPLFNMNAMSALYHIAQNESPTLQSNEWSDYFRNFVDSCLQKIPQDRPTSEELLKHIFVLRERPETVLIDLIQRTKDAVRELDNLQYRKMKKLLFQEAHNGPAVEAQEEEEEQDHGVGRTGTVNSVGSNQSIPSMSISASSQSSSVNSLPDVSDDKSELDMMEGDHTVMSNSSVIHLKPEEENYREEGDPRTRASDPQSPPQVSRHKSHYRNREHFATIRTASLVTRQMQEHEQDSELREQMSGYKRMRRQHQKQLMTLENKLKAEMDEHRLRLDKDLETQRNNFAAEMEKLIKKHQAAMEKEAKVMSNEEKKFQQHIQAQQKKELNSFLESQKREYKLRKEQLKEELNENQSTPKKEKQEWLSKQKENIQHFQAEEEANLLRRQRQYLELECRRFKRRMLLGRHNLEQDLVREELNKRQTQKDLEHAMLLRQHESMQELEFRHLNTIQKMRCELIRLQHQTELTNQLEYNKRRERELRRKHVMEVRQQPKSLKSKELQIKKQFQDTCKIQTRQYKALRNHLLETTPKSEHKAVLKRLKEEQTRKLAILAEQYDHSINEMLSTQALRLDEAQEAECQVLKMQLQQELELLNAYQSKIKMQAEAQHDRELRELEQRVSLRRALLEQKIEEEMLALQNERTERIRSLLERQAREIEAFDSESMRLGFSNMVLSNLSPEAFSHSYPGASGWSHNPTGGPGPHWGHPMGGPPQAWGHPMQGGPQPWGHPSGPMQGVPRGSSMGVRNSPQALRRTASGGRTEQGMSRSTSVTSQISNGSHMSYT", "test": "scanMAX panel and Kd follow-up", "assay_type": "binding"}, "[2]": {"system": "RWPE-1 Normal Prostate Cells", "test": "CellTiter-Glo 2D cell viability assay in normal prostate cells", "assay_type": "cell-based", "details": "Homo sapiens; RWPE-1 normal prostate cells, 72 hours", "procedure": "(§1) Multiplexing the LDH-Glo Cytotoxicity Assay and CellTiter-Glo 2D Cell Viability Assay. […] Change in toxicity was measured using the LDH-Glo Cytotoxicity Assay by combining 50 μL diluted samples with 50 μL LDH Detection Reagent and recording luminescence after 1 hour incubation. After samples were removed for LDH measurement, an equal volume of CellTiter Glo 2D Reagent was added to the remaining cell suspension and luminescence was recorded after 30-minute incubation period."}, "CDK9": {"molecular_target": "CDK9 (Homo sapiens, UniProt P50750)", "sequence (P50750 whole entry)": "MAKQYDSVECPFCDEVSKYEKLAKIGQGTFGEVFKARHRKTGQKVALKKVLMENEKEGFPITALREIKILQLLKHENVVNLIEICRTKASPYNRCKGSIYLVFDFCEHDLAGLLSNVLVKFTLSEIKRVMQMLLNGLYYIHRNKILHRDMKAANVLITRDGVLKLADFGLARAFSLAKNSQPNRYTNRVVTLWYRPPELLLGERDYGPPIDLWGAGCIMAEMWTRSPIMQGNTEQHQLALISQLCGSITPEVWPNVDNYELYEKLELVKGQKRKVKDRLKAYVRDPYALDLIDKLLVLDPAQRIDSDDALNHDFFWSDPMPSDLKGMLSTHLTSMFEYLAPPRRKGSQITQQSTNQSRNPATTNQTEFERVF", "test": "DiscoveRx KINOMEscan (KdELECT, scanMAX panel)", "assay_type": "binding", "procedure": "CDKs family kinases profiling assays were performed with DiscoveRx Matrix of Kds KINOMEscan (KdELECT) and Reaction Biology using miniaturized radioisotope-based assay platform (^33P). IC50 value estimated based on the best curve fitting available."}, "[3]": {"system": "LASCPC-01 induced neuroendocrine prostate cancer (NEPC) CDX", "test": "In vivo tumor efficacy study 2, LASCPC-01 NEPC CDX", "parameters": "species or system Nu/Nu (Balb/c background) mice", "procedure": "Change in animal weight during a study is an additional indicator of tolerability. All animal weights are recorded. Tumor volumes were measured by digital caliper and volume was calculated using the formula [Width^2×Length]/2. All tumor volume measurements are recorded. […] Dose dependent tumor growth inhibition (TGI) was evident by observation.\n50 and 80 mg/kg groups had mice drop from study starting on day 5."}, "[4]": {"system": "RWPE-1 Normal Prostate Cells", "test": "LDH-Glo cytotoxicity assay in normal prostate cells", "assay_type": "cell-based", "details": "Homo sapiens, 72 hours", "procedure": "as §1"}, "NCI-H660": {"system": "NCI-H660", "test": "2D CellTiter-Glo cell viability assay", "assay_type": "cell-based", "details": "NCI-H660, 72 hours", "procedure": "(§2) CellTiter-Glo® 2.0 Luminescent cell viability assay reagent was purchased from Promega and 22Rv1 and LASCPC-01 cell lines were purchased from ATCC. […] An equal volume of CellTiter-Glo 2D Reagent was added to the cell suspensions and luminescence was recorded after 30-minute incubation period. […] FIG. 2 illustrates cellular antiproliferative efficacy of a benchmark CDK9 inhibitor AD-4573 on six prostate cancer cell lines over various concentrations.\n(§3) CellTiter-Glo® 2.0 Luminescent cell viability assay reagent was purchased from Promega and 22Rv1, LASCPC-01, C4-2, C4-2B and NCI-H660, DU-145, PC-3 and LNCap cell lines were obtained from ATCC and a clinical core facility at Huntsman Cancer Institute. […] The results of cell viability were obtained and IC50 values were calculated (see Table 5, below) showing sub-micromolar cell killing of these prostate cancer cells."}, "22Rv1": {"system": "22Rv1", "test": "2D CellTiter-Glo cell viability assay", "assay_type": "cell-based", "details": "Homo sapiens; 22Rv1, 72 hours", "procedure": "as §2, §3"}, "LASCPC-01": {"system": "LASCPC-01", "test": "2D CellTiter-Glo cell viability assay", "assay_type": "cell-based", "details": "LASCPC-01, 72 hours", "procedure": "as §2, §3"}, "LNCap": {"system": "LNCap", "test": "2D CellTiter-Glo cell viability assay", "assay_type": "cell-based", "details": "Homo sapiens, 72 hours", "procedure": "as §2, §3"}, "DU-145": {"system": "DU-145", "test": "2D CellTiter-Glo cell viability assay", "assay_type": "cell-based", "details": "Homo sapiens; DU-145, 72 hours", "procedure": "as §2, §3"}, "PCTK1": {"molecular_target": "PCTK1 (Homo sapiens, UniProt Q00536)", "sequence (Q00536 whole entry)": "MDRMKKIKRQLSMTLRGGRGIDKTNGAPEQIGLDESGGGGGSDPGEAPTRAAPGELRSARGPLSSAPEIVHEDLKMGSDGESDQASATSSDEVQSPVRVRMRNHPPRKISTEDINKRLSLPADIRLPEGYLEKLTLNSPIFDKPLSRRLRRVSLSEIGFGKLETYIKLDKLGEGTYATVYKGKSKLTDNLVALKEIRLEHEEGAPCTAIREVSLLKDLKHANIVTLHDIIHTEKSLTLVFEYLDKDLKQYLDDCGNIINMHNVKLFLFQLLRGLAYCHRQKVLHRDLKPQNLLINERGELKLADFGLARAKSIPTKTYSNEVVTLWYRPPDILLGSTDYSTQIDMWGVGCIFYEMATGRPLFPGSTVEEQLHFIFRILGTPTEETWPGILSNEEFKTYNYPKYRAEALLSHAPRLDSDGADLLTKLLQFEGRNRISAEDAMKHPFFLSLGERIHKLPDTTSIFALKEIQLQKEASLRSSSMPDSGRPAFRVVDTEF", "test": "scanMAX panel and Kd follow-up", "assay_type": "binding"}, "CDK9 + Cyclin T1": {"molecular_target": "CDK9 + Cyclin T1 (Homo sapiens, UniProt P50750)", "sequence (P50750 whole entry)": "as the sequence (P50750 whole entry) above", "sequence (O60563 whole entry partner)": "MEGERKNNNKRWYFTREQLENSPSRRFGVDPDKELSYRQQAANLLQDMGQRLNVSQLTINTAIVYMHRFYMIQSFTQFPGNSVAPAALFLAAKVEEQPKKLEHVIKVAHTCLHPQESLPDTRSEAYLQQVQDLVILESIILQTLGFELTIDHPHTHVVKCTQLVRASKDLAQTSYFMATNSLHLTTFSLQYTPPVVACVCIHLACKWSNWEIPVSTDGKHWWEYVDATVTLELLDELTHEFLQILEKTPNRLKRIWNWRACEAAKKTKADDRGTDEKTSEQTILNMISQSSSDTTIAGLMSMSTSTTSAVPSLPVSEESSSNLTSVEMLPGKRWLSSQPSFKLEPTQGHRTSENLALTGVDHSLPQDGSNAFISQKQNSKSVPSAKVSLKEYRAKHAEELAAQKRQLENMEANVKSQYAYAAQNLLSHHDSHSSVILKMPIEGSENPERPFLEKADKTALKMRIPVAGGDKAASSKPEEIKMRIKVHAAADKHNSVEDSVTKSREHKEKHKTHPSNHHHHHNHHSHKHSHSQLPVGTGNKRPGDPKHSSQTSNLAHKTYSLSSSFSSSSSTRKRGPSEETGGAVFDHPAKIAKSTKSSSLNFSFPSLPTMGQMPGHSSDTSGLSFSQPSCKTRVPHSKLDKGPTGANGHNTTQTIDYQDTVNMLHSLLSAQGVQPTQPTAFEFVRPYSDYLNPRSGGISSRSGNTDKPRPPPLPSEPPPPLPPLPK", "test": "cell-based"}, "hERG channel": {"molecular_target": "T1, hERG channel (Homo sapiens, UniProt Q12809)", "T1 construct": "purchased", "T1 sequence (Q12809 whole entry)": "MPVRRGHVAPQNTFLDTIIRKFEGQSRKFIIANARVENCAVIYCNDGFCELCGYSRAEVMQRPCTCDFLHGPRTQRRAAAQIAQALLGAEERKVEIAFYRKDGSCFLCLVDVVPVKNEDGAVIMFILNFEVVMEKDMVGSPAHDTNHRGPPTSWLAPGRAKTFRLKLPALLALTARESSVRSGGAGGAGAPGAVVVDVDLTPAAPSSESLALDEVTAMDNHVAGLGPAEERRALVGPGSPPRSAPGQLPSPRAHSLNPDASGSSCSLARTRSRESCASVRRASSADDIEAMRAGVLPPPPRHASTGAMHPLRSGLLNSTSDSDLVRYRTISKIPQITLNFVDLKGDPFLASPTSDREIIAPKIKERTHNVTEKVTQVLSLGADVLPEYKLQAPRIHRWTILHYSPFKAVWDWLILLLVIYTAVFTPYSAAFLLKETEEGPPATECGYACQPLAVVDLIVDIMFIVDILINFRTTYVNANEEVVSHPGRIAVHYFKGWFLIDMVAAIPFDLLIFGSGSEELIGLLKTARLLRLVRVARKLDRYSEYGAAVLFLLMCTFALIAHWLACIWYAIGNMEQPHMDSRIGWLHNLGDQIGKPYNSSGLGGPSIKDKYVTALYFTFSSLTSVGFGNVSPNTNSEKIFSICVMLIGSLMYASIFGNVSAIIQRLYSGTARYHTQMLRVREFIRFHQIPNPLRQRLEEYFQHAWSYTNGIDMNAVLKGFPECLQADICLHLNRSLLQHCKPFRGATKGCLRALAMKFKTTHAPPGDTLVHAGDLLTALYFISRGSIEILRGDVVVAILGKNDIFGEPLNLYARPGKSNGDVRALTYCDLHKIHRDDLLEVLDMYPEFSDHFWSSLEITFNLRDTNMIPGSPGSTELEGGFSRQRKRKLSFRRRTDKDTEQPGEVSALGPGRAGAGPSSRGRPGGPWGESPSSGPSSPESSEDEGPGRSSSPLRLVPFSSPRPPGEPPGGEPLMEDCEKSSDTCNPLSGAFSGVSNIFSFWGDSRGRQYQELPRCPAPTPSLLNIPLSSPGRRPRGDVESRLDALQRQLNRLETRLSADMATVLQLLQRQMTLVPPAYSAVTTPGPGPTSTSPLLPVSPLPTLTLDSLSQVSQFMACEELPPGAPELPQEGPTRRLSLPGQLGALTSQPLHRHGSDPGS", "test": "Predictor hERG Fluorescence Polarization Assay", "assay_type": "binding", "text": "The Predictor™ hERG Fluorescence Polarization Assay Kit was used to perform hERG channel biochemical binding studies in the absence of radioligand. Assay performance was validated with a panel of established hERG channel blockers."}, "PRKD3": {"molecular_target": "PRKD3 (Homo sapiens, UniProt O94806)", "sequence (O94806 whole entry)": "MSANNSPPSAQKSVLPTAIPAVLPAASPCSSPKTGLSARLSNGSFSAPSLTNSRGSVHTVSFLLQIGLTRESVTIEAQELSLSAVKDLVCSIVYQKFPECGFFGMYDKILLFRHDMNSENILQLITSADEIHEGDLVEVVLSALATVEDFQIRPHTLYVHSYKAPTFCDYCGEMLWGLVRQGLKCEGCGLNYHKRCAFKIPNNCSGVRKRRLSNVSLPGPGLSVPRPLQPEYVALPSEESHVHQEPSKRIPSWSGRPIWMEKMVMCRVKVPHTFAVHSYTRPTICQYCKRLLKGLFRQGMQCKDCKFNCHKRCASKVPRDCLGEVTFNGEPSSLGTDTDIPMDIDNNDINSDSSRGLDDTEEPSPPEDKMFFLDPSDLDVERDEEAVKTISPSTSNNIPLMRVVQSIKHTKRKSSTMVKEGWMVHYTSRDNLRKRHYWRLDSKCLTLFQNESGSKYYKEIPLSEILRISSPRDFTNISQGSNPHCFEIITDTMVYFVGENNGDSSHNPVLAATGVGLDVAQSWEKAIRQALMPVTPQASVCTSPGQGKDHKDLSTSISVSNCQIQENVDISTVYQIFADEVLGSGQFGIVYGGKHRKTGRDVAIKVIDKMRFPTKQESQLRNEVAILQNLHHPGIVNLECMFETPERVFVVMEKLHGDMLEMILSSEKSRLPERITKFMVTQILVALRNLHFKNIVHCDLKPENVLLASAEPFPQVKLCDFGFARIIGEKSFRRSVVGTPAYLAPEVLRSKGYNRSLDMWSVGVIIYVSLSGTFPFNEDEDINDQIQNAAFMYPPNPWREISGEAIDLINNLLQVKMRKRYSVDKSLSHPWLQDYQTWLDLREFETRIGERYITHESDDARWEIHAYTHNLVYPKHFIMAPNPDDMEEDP", "test": "scanMAX panel and Kd follow-up", "assay_type": "binding"}, "[5]": {"system": "CDK9 downstream targets in 22Rv1 and LASCPC-01", "test": "Western blot analysis of nuclear extract", "assay_type": "cell-based", "procedure": "Cytoplasmic and nuclear extracts from these cells were separated using NE-PER Nuclear and Cytoplasmic Extraction Kit (ThermoFisher). […] Relative protein expression of CDK9, N-Myc and other downstream signaling was quantified by GraphPad Prism 8 and ImageJ Software RT-PCR Gene.\nThen cells were harvested with PBS and fixed with ice-cold 70% ethanol at −20° C. overnight. The cells were then washed with ice-cold PBS 2× and then re-suspended in DAPI staining buffer and incubated in the dark for 30 minutes. The cells were analyzed using BD Fortessa flow cytometer and cell cycle distribution was analyzed using FlowJo and GraphPad Prism 8 Software."}, "[6]": {"system": "C4-2 human neuroendocrine prostate cancer xenograft", "test": "In vivo tumor efficacy study 3, C4-2 xenograft"}, "CDK9/CycT1": {"molecular_target": "T2, CDK9/CycT1 (Homo sapiens, UniProt P50750)", "T2 construct": "purchased SignalChem", "T2 sequence (P50750 whole entry)": "as the sequence (P50750 whole entry) above", "T2 sequence (O60563 whole entry partner)": "as the sequence (O60563 whole entry partner) above", "test": "ADP-Glo kinase assay", "assay_type": "biochemical", "procedure": "ADP-Glo assay kit was purchased from Promega and the CDK9/CycT1 protein and PDKtide substrate were purchased from SignalChem. […] The reaction was started by pre-incubating 4 μL of protein (20 nM), 2 μL of substrate (100 μM), and 2 μL of serial diluted drug in 1× assay buffer (50 mM HEPES, 3 mM MgCl2, 3 mM MnCl2, and 1 mM DTT) for 30 minutes. After pre-incubating, 4 μL of ATP (1 μM) was added to each well and incubated for an additional 90 minutes. The ADP-Glo Reagent (10 μL) and Kinase Detection Reagent (20 μL) were added to each well and incubated as recommended by Promega. The reaction was quantified by measuring luminescence and the IC50 was calculated using GraphPad Prism software."}},
  "data": [
    {"smiles": "CC(C)c1c2cc(-c3ccnc(N[C@H]4CC[C@H](N)C4)n3)ccc2nn1C", "note": "[Compound I-2, (1S,3S)-[3-[4-(3-isopropyl-2-methylindazol-5-yl)pyrimidin-2-yl]aminocyclopentan-1-yl]-1,3-diamine]", "values": [
      {"measurement": "bioavailability", "setting": "[1]", "result": 28, "unit": "%"},
      {"measurement": "cell death", "setting": "C4-2", "result": 84, "unit": "%"},
      {"measurement": "Kd", "setting": "TAOK1; TAOK1", "result": 19, "unit": "nM"},
      {"measurement": "remaining binding at 1 µM", "setting": "TAOK1; TAOK1, 1 μM, read-out: % of control activity", "result": "0 to 1", "unit": "%"},
      {"measurement": "IC50", "setting": "[2]", "result": 5260, "unit": "nM"},
      {"measurement": "activity in scanMAX panel", "setting": "CDK9; CDK9, 1 μM", "result": 2.7, "unit": "%"},
      {"measurement": "Kd", "setting": "CDK9; CDK9/cyclinT", "result": 4.2, "unit": "nM"},
      {"measurement": "tumor growth inhibition throughout the course of the study", "setting": "[3]; LASCPC-01, 50 mg/kg group", "result": "> 80", "unit": "%"},
      {"measurement": "maximal tumor growth inhibition", "setting": "[3]; LASCPC-01, 50 mg/kg group, early in the study", "result": "~100", "unit": "%"},
      {"measurement": "maximal growth inhibition", "setting": "[3]; LASCPC-01, 80 mg/kg group, day 5", "result": 117, "unit": "%"},
      {"measurement": "tumor growth", "setting": "[3]; LASCPC-01, 30, 50, 65, 80 mg/kg", "result": "inhibit tumor growth in a dose dependent manner"},
      {"measurement": "IC50", "setting": "[4]", "result": 6700, "unit": "nM"},
      {"measurement": "IC50", "setting": "NCI-H660", "result": 448, "unit": "nM"},
      {"measurement": "IC50", "setting": "22Rv1", "result": 132, "unit": "nM"},
      {"measurement": "IC50", "setting": "LASCPC-01; 72 h", "result": 58, "unit": "nM"},
      {"measurement": "IC50", "setting": "LASCPC-01", "result": 58, "unit": "nM"},
      {"measurement": "IC50", "setting": "LNCap", "result": 80.4, "unit": "nM"},
      {"measurement": "IC50", "setting": "DU-145", "result": 7720, "unit": "nM"},
      {"measurement": "Kd", "setting": "PCTK1; PCTK1", "result": 8.2, "unit": "nM"},
      {"measurement": "remaining binding at 1 µM", "setting": "PCTK1; PCTK1, 1 μM, read-out: % of control activity", "result": "0 to 1", "unit": "%"},
      {"measurement": "IC50", "setting": "CDK9 + Cyclin T1", "result": 15.6, "unit": "nM"},
      {"measurement": "hERG activity", "setting": "hERG channel", "result": "no hERG activity"},
      {"measurement": "IC50", "setting": "hERG channel; fluorescence polarization", "result": 57800, "unit": "nM"},
      {"measurement": "Kd", "setting": "PRKD3; PRKD3", "result": 230, "unit": "nM"},
      {"measurement": "remaining binding at 1 µM", "setting": "PRKD3; PRKD3, 1 μM, read-out: % of control activity", "result": "0 to 1", "unit": "%"},
      {"measurement": "CDK9 downstream targets (Western blot)", "setting": "[5]", "result": "inhibited the CDK9 downstream targets"},
      {"measurement": "decrease in tumor weight as compared to vehicle control group", "setting": "[6]; C4-2, 50-30 mg/kg p.o., day 21", "result": 48.72, "unit": "%"},
      {"measurement": "tumor volume as compared to vehicle control group", "setting": "[6]; C4-2, 50-30 mg/kg p.o., days 18 to 21", "result": "significant decrease tumor volume"},
      {"measurement": "tumor growth inhibition from vehicle control group", "setting": "[6]; C4-2, 50-30 mg/kg p.o., terminal day 21", "result": 43.25, "unit": "%"},
      {"measurement": "body weight as compared to vehicle control group", "setting": "[6]; C4-2 study, 50-30 mg/kg p.o., starting at day 4", "result": "significant body weight loss"},
      {"measurement": "severe body weight loss", "setting": "[6]; C4-2 study, mouse that died", "result": "~15", "unit": "%"},
      {"measurement": "IC50", "setting": "CDK9/CycT1", "result": "< 50", "unit": "nM"}
    ]}
  ]
}
